# From patent US11767310B2, “Nicotinamide RIPK1 inhibitors” (AbbVie Inc., priority 2021, dated 2023)
# Like-named read-outs stand apart in the source and are kept apart here.
# How the values were obtained:
# Experiment in all cases: Kinase binding screen
# Conditions in all cases: read-out: Percent Control at 100 nM Compound Concentration
# PAK3 = PAK3 (Homo sapiens (Human), UniProt O75914)
# PIP5K1C = PIP5K1C (Homo sapiens (Human), UniProt O60331)
# TEC = TEC (Homo sapiens (Human), UniProt P42680)
# NDR1 = NDR1 (Homo sapiens (Human), UniProt Q15208)
# FLT3(D835Y) = FLT3(D835Y) (Homo sapiens (Human), UniProt P36888, D835Y)
# PRKD2 = PRKD2 (Homo sapiens (Human), UniProt Q9BZL6)
# MAP4K3 = MAP4K3 (Homo sapiens (Human), UniProt Q8IVH8)
# Chain of MAP4K3 (Q8IVH8 whole entry): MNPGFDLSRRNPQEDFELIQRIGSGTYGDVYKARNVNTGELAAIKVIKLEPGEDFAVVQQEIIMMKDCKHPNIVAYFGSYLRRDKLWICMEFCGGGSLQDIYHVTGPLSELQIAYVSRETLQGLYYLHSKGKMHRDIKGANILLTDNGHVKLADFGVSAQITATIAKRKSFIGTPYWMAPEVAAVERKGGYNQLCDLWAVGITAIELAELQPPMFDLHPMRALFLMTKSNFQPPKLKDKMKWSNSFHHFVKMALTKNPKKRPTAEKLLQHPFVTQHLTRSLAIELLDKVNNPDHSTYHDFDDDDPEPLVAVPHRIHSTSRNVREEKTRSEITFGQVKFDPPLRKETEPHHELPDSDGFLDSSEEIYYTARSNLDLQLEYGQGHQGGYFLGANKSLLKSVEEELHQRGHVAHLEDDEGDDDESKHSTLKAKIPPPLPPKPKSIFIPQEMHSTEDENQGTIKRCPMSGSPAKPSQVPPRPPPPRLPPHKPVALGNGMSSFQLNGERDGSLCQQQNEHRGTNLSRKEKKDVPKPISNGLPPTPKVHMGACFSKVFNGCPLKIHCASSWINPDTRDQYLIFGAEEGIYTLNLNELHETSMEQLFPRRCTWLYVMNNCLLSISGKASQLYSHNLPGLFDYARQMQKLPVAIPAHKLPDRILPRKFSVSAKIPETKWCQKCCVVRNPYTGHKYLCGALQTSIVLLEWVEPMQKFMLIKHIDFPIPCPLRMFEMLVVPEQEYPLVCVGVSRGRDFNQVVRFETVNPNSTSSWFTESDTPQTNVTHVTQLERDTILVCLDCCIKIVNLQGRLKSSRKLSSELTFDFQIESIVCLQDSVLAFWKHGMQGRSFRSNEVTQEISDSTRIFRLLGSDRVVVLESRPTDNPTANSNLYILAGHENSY
# PIK3CA(H1047Y) = PIK3CA(H1047Y) (Homo sapiens (Human), UniProt P42336, H1047Y)
# AKT1 = AKT1 (Homo sapiens (Human), UniProt P31749)
# NLK = NLK (Homo sapiens (Human), UniProt Q9UBE8)
# FLT3(D835H) = FLT3(D835H) (Homo sapiens (Human), UniProt P36888, D835H)
# DYRK1A = DYRK1A (Homo sapiens (Human), UniProt Q13627)
# RIPK4 = RIPK4 (Homo sapiens (Human), UniProt P57078)
# ACVR2A = ACVR2A (Homo sapiens (Human), UniProt P27037)
# ULK2 = ULK2 (Homo sapiens (Human), UniProt Q8IYT8)
# Chain of ULK2 (Q8IYT8 whole entry): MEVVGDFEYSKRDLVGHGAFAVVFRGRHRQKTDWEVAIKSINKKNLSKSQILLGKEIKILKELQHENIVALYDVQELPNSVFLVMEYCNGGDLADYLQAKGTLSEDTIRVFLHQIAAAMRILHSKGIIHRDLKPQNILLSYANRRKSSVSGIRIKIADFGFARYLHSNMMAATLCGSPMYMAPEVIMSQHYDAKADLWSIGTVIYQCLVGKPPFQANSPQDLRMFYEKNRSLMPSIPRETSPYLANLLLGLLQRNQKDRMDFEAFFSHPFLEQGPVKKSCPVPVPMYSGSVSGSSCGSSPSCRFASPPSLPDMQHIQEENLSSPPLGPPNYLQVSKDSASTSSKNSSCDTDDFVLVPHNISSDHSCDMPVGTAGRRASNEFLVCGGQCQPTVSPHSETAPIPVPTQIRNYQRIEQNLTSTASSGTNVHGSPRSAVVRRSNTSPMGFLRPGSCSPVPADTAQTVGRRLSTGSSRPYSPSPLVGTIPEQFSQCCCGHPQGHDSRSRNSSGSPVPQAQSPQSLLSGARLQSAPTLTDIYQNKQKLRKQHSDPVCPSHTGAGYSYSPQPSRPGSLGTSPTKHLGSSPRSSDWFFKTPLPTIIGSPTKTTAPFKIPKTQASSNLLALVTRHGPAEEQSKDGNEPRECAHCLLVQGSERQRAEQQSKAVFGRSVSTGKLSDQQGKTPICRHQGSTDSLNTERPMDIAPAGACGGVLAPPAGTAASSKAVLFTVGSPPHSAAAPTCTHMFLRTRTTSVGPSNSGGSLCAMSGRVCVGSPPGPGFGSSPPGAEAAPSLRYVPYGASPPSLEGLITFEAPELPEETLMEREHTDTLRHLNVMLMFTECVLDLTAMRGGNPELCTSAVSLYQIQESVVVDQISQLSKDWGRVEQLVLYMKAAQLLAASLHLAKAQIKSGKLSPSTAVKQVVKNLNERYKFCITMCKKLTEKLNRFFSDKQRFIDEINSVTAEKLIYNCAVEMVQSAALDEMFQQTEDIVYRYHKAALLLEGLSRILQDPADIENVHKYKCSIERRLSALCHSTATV
# VPS34 = VPS34 (Homo sapiens (Human), UniProt Q8NEB9)
# Chain of VPS34 (Q8NEB9 whole entry): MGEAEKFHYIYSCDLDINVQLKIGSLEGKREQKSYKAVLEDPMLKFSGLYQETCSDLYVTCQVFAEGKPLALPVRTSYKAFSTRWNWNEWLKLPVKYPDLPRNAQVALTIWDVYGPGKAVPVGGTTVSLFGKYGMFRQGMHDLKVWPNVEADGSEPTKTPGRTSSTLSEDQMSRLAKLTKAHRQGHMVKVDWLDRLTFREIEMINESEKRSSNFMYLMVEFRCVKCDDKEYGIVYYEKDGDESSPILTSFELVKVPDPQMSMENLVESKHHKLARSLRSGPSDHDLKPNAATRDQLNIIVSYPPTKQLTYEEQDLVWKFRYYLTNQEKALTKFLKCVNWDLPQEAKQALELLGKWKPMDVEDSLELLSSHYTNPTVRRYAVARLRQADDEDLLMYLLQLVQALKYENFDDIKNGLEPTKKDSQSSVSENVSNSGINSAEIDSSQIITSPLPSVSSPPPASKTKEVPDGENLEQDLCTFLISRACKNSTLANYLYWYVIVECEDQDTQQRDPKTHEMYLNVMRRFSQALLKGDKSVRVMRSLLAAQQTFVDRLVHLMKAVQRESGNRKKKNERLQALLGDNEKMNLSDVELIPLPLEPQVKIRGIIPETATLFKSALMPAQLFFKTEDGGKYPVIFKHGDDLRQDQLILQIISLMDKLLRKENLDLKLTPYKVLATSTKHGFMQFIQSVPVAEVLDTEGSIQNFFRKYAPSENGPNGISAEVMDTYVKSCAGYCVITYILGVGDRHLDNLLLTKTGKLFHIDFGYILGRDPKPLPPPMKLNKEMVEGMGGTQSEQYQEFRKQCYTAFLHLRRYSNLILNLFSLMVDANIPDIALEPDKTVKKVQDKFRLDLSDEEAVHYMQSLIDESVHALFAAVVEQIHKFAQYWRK
# EPHB6 = EPHB6 (Homo sapiens (Human), UniProt O15197)
# WNK3 = WNK3 (Homo sapiens (Human), UniProt Q9BYP7)
# ROS1 = ROS1 (Homo sapiens (Human), UniProt P08922)
# TTK = TTK (Homo sapiens (Human), UniProt P33981)
# Chain of TTK (P33981 whole entry): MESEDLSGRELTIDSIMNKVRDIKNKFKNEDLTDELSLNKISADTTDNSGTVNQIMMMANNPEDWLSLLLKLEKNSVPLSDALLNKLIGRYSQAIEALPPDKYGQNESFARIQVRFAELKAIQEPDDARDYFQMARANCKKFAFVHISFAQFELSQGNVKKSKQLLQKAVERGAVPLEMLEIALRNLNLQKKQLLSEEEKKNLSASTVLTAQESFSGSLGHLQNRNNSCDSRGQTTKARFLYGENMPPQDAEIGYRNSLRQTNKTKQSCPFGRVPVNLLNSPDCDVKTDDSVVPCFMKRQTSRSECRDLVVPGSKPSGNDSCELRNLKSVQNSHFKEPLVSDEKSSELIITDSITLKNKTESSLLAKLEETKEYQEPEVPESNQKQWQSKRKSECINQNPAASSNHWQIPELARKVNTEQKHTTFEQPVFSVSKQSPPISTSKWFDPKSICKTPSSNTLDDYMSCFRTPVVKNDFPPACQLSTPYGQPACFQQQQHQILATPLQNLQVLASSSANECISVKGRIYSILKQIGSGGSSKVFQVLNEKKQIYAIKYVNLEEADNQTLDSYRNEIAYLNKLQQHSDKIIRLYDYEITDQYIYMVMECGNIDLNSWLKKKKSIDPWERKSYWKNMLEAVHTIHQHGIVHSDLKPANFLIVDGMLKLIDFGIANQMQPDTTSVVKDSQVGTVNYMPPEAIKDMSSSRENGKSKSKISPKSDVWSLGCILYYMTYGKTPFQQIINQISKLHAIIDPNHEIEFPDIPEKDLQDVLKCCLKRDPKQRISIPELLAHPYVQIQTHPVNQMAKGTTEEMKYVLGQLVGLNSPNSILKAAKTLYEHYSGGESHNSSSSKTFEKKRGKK
# CDK5 = CDK5 (Homo sapiens (Human), UniProt Q00535)
# Chain of CDK5 (Q00535 whole entry): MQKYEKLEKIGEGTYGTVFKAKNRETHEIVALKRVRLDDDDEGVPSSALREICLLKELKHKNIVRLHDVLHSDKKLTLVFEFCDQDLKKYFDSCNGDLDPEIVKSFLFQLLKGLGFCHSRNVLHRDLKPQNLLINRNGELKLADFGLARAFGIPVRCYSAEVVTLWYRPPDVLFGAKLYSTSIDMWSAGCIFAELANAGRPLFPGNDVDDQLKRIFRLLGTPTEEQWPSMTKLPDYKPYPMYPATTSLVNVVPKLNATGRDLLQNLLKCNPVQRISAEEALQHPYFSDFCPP
# PIK3CA(H1047L) = PIK3CA(H1047L) (Homo sapiens (Human), UniProt P42336, H1047L)
# PHKG2 = PHKG2 (Homo sapiens (Human), UniProt P15735)
# Chain of PHKG2 (P15735 whole entry): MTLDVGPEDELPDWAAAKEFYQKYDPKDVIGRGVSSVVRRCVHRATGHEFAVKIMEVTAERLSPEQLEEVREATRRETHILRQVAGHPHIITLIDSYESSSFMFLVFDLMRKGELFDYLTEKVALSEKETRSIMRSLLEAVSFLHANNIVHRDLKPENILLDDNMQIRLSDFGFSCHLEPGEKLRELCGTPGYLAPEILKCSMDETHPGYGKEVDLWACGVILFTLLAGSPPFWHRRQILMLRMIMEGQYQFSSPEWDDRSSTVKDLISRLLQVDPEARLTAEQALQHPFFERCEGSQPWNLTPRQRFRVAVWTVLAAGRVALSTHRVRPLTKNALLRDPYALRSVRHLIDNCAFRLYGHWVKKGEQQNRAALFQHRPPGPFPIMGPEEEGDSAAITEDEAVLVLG
# [1] = target: ABL1(T315I)-nonphosphorylated (Homo sapiens (Human), UniProt P00519, T315I)
# ROCK1 = ROCK1 (Homo sapiens (Human), UniProt Q13464)
# MAPKAPK2 = MAPKAPK2 (Homo sapiens (Human), UniProt P49137)
# DAPK2 = DAPK2 (Homo sapiens (Human), UniProt Q9UIK4)
# STK39 = STK39 (Homo sapiens (Human), UniProt Q9UEW8)
# TSSK1B = TSSK1B (Homo sapiens (Human), UniProt Q9BXA7)
# Chain of TSSK1B (Q9BXA7 whole entry): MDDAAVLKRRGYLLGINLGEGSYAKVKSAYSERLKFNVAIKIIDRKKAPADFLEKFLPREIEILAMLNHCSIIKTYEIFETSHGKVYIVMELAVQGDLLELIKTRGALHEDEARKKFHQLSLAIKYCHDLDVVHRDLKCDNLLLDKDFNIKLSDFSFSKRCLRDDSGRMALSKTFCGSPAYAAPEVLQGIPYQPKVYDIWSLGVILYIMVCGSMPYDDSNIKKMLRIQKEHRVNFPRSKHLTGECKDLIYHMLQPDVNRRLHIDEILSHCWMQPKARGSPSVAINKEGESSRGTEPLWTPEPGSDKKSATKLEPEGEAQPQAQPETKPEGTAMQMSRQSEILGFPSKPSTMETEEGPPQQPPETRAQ
smiles,measurement,setting,value
"CN(C[C@@H](O)Cc1ccccc1)C(=O)c1cncc(C#Cc2cnn(C(F)F)c2)c1 [Example 2, (S)-5-((1-(difluoromethyl)-1H-pyrazol-4-yl)ethynyl)-N-(2-hydroxy-3-phenylpropyl)-N-methylnicotinamide]",remaining activity at 0.1 µM,PAK3; PAK3,71%
same,remaining activity at 0.1 µM,PIP5K1C; PIP5K1C,100%
same,remaining activity at 0.1 µM,TEC; TEC,99%
same,remaining activity at 0.1 µM,NDR1; NDR1,100%
same,remaining activity at 0.1 µM,FLT3(D835Y); FLT3(D835Y),100%
same,remaining activity at 0.1 µM,PRKD2; PRKD2,79%
same,remaining activity at 0.1 µM,MAP4K3; MAP4K3,100%
same,remaining activity at 0.1 µM,PIK3CA(H1047Y); PIK3CA(H1047Y),71%
same,remaining activity at 0.1 µM,AKT1; AKT1,100%
same,remaining activity at 0.1 µM,NLK; NLK,100%
same,remaining activity at 0.1 µM,FLT3(D835H); FLT3(D835H),100%
same,remaining activity at 0.1 µM,DYRK1A; DYRK1A,90%
same,remaining activity at 0.1 µM,RIPK4; RIPK4,100%
same,remaining activity at 0.1 µM,ACVR2A; ACVR2A,94%
same,remaining activity at 0.1 µM,ULK2; ULK2,100%
same,remaining activity at 0.1 µM,VPS34; VPS34,87%
same,remaining activity at 0.1 µM,EPHB6; EPHB6,100%
same,remaining activity at 0.1 µM,WNK3; WNK3,100%
same,remaining activity at 0.1 µM,ROS1; ROS1,100%
same,remaining activity at 0.1 µM,TTK; TTK,100%
same,remaining activity at 0.1 µM,CDK5; CDK5,100%
same,remaining activity at 0.1 µM,PIK3CA(H1047L); PIK3CA(H1047L),85%
same,remaining activity at 0.1 µM,PHKG2; PHKG2,100%
same,remaining activity at 0.1 µM,[1]; ABL1(T315I)-nonphosphorylated,100%
same,remaining activity at 0.1 µM,ROCK1; ROCK1,100%
same,remaining activity at 0.1 µM,MAPKAPK2; MAPKAPK2,100%
same,remaining activity at 0.1 µM,DAPK2; DAPK2,100%
same,remaining activity at 0.1 µM,STK39; STK39,100%
same,remaining activity at 0.1 µM,TSSK1B; TSSK1B,88%
"CN(C[C@H](Cc1ccccc1)OP(=O)(O)O)C(=O)c1cncc(C#Cc2cnn(C(F)F)c2)c1 [Example 19, (S)-1-(5-((1-(difluoromethyl)-1H-pyrazol-4-yl)ethynyl)-N-methylnicotinamido)-3-phenylpropan-2-yl dihydrogen phosphate]",remaining activity at 0.1 µM,PAK3,100%
same,remaining activity at 0.1 µM,PIP5K1C,85%
same,remaining activity at 0.1 µM,TEC,93%
same,remaining activity at 0.1 µM,NDR1,100%
same,remaining activity at 0.1 µM,FLT3(D835Y),100%
same,remaining activity at 0.1 µM,PRKD2,100%
same,remaining activity at 0.1 µM,MAP4K3,100%
same,remaining activity at 0.1 µM,PIK3CA(H1047Y),72%
same,remaining activity at 0.1 µM,AKT1,100%
same,remaining activity at 0.1 µM,NLK,100%
same,remaining activity at 0.1 µM,FLT3(D835H),100%
same,remaining activity at 0.1 µM,DYRK1A,85%
same,remaining activity at 0.1 µM,RIPK4,100%
same,remaining activity at 0.1 µM,ACVR2A,100%
same,remaining activity at 0.1 µM,ULK2,94%
same,remaining activity at 0.1 µM,VPS34,90%
same,remaining activity at 0.1 µM,EPHB6,100%
same,remaining activity at 0.1 µM,WNK3,100%
same,remaining activity at 0.1 µM,ROS1,91%
same,remaining activity at 0.1 µM,TTK,82%
same,remaining activity at 0.1 µM,CDK5,100%
same,remaining activity at 0.1 µM,PIK3CA(H1047L),71%
same,remaining activity at 0.1 µM,PHKG2,100%
same,remaining activity at 0.1 µM,[1],97%
same,remaining activity at 0.1 µM,ROCK1,100%
same,remaining activity at 0.1 µM,MAPKAPK2,100%
same,remaining activity at 0.1 µM,DAPK2,90%
same,remaining activity at 0.1 µM,STK39,100%
same,remaining activity at 0.1 µM,TSSK1B,76%
